Patent publication US9872868B2, “Mitochondrially-targeted electrophilic compounds and methods of use for the treatment of cancer” (UAB Research Foundation, priority 2013, dated 2018)

Key:
[1] = cited from earlier work
[2] = i.p. injection; cited from earlier work
[3] = test system: breast cancer cells; settings: by altering p38 and ERK signaling; cited from earlier work
[4] = test system: aconitase (ACO), isocitrate dehydrogenase (IDH), and α-ketoglutarate dehydrogenase (KGDH); settings: cited from earlier work
[5] = test system: MDA-MB 231 breast cancer cells; assay: Cell adhesion (reattachment after scraping), viable non-adherent cells counted with trypan blue; assay type: cell-based, human
Protocol: (§1) FIG. 7. Two ×10^5 cells/plate were plated on a 6-well plate, 24 hrs after plating cells were starved in 0.5% FCS containing media for another 24 hrs. Cells were then treated for another 24 hrs with increasing doses of IBTP or the non-reactive analog butyl-triphenylphosphonium (BTPP) as a control. Cells were scraped and made into single cell suspension. Cells were counted and plated in 100-mm tissue culture plate. After 24 hrs the media is collected, centrifuged and the viable cells were counted using trypan blue.
FIG. 2. Two×10^5 cells/plate were plated on a 6-well plate, 24 hrs after plating cells were starved in 0.5% FCS containing media for another 24 hrs.
as §1, with “Cells” for “FIG. 7. Two ×10^5 cells/plate were plated on a 6-well plate, 24 hrs after plating cells were starved in 0.5% FCS containing media for another 24 hrs. Cells”

[6] = test system: MCF10A nontumorigenic cells; assay: Sensitization to doxorubicin in nontumorigenic cells; assay type: cell-based; settings: data not shown
[7] = test system: MDA-MB 231 cells; assay: Mitochondrial bioenergetic assay, Extracellular Flux Analyzer XF-24 (OCR); assay type: cell-based, human; settings: 5 μM, 4 h, 0.5% serum containing medium, vs EtOH vehicle
Protocol: FIG. 3. Bioenergetic response of breast cancer cells to MTE. Panel A. A schematic representation of the mitochondrial bioenergetic assay in an Extracellular Flux Analyzer XF-24 (Seahorse Biosciences). Panel A: Sequential injections of oligomycin, FCCP, and Antimycin A allow determination of the component mitochondrial bioenergetic parameters. Panel B. MDA-MB 231 cells were treated for 4 h in 0.5% serum containing medium with EtOH vehicle, IBTP (5 μM), or BTPP (5 μM) and the OCR measured over time. Panel C. Comparison of basal OCR, ATP-dependent OCR, and reserve capacity (RC) with veh and IBTP treatments. Each point is the mean of a minimum of 3 determinations±SEM, from at least 2 independent experiments. Asterisks represent p<0.05. Recent work has shown that MTEs can modulate cell signaling, and depending upon the specific MTE, may do so without causing overt cellular toxicity to cancer cells or normal cells (12). MTEs are small molecules which consist of a triphenylphosphonium lipophilic cationic moiety and a leaving group such as iodide, which renders the adjacent carbon electrophilic. […] We have previously shown reserve capacity is indicative of the cells' ability to withstand a “second hit” of oxidative stress (7).

[8] = test system: cancer or noncancer cells; assay: Cytotoxicity of the MTE alone; assay type: cell-based; settings: data not shown
[9] = test system: HIF-1α; assay: HIF-1α stabilization by western blotting; assay type: cell-based, human
Protocol: FIG. 5. Effects of an MTE on HIF-1α. MDA-MB-231 cells were incubated for 8 h under normoxia or hypoxia and were treated with either 10 μM IBTP or bTPP for 4 h. The lysates were collected and analyzed for HIF-1α stabilization by western blotting.
However, the mechanism for this decrease in HIF-1α protein is not clear. One possibility is that IBTP inhibits the enzyme within the Krebs cycle, KGDH, that is responsible for converting α-ketoglutarate to succinyl-CoA. Inhibition of this enzyme would cause an increase in α-ketoglutarate, which is a cofactor for the prolyl hydroxylase involved in HIF-1α degradation. We propose that MTEs affect HIF-1α stabilization at least in part, by modulating the activity of KGDH and increasing intracellular levels of α-ketoglutarate. KGDH was previously shown to be among the proteins which form covalent adducts with IBTP (13). Importantly, decreased stabilization of HIF-1α prevents the bioenergetic adaptation to hypoxia in breast cancer cells, as we have recently shown (11)(in press, see Appendix 1).

[10] = test system: MDA-MB 231 breast cancer cells; assay: Cell death and clonogenic survival; assay type: cell-based

COC1=C(OC)C(=O)C(CCCCCCCCCC[P+](c2ccccc2)(c2ccccc2)c2ccccc2)=C(C)C1=O [mitoQ]
oral bioavailability ([1]; clinical trials): orally bioavailable | tolerability ([1]; clinical trials): well tolerated | efficacy in Parkinson's Disease ([1]; phase I clinical trials): not found to be effective | dose up to which no toxicity was observed [2]: up to 750 nmol mitoQ/mouse

CCCCC/C=C/C=C1/C(=O)C=C[C@@H]1C/C=C\CCCC(=O)O [15d-PGJ2, 15 deoxy-prostaglandin J2]
migration of breast cancer cells [3]: inhibits migration

ICCCC[P+](c1ccccc1)(c1ccccc1)c1ccccc1 [IBTP, iodobutyl triphenylphosphonium iodide]
covalent adducts with Krebs cycle proteins [4]: forms covalent adducts | reattachment to tissue culture plates after scraping ([5]; 10 μM, 24 h): failed to reattach | inhibition at 10 µM ([5]; Homo sapiens, MDA-MB-231, read-out: cells whose adhesion is inhibited after detachment): ~15% | sensitization to doxorubicin [6]: did not sensitize | basal OCR [7]: decrease basal OCR | reserve capacity (RC) [7]: completely abrogates the reserve capacity | cytotoxicity [8]: not cytotoxic | constitutive and hypoxia-inducible expression of HIF-1α protein ([9]; MDA-MB-231, 10 μM, 4 h, normoxia or hypoxia 8 h): inhibits both constitutive and hypoxia-inducible expression of HIF-1α protein | basal HIF-1α stabilization ([9]; MDA-MB-231, data not shown): inhibited basal HIF-1α stabilization both time and dose-dependently | overt cell death ([10]; 10 μM, 24 h): no evidence of overt cell death | clonogenic survival ([10]; 10 μM, data not shown): significantly decreased clonogenic survival | cytotoxicity at higher concentrations ([10]; concentrations higher than 10 μM, MDA-MB 231 and other cell types): can be cytotoxic
